Measured values: ChEMBL document CHEMBL5518193, “Discovery of N-alkyl-N-benzyl thiazoles as novel TRPC antagonists for the treatment of glioblastoma multiforme” (Eur J Med Chem, 2024)

Target: T1, Short transient receptor potential channel 7 (Homo sapiens, UniProt Q9HCX4)
T1 sequence (Q9HCX4 whole entry): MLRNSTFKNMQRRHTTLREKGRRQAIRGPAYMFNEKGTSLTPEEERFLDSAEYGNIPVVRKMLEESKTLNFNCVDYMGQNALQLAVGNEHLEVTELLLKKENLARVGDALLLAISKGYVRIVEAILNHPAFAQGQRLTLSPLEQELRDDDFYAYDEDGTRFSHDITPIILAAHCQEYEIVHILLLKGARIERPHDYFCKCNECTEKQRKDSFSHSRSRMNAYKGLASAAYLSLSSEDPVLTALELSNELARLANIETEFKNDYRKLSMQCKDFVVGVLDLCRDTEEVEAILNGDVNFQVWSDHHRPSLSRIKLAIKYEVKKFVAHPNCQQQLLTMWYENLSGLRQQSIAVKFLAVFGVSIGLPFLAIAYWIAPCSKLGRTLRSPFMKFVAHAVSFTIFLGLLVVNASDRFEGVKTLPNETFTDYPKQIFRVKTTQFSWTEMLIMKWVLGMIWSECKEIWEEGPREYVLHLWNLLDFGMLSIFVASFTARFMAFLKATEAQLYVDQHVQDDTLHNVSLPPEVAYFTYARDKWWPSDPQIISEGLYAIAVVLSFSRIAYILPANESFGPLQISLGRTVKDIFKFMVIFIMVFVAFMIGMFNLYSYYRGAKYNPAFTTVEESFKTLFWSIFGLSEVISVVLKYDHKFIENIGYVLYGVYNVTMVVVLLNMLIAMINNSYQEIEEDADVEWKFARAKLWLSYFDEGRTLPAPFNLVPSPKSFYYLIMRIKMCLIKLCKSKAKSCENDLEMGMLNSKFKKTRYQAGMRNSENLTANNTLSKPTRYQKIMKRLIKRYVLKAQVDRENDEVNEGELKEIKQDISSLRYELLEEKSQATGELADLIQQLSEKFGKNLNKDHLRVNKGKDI
Experiment: Antagonist activity at human TRPC7 stably expressed in HEK293 cells inhibition of calcium influx by calcium fluorescence assay
Format: cell-based

NCCN(Cc1ccc2ccccc2c1)c1nc(C(=O)Nc2ccc(O)cc2)cs1
IC50: 3.4 µM
